Drawing on PubChem BioAssay AID540269 (Sanford-Burnham Center for Chemical Genomics, 2011), this text covers IC50 for 39 molecules.

Active and inactive are the calls of the source. How the calls were made is not given here.

For orientation: IC50 means the concentration at which inhibition is half-maximal.

This assay addresses glucose-6-phosphate dehydrogenase-6-phosphogluconolactonase (Plasmodium falciparum 3D7). The assay can be described thus: inhibition of P. falciparum G6PD activity – biochemical, kinetic NADPH detection, orthogonal assay, dose response (AID 540269). Particulars: purified PfG6PD-6PGL.
With `Cc1cc(C)c(S(=O)(=O)Nc2cc(SCC(=O)O)c(O)c3ccccc23)cc1C`, the IC50 is 41.4 µM. On to `COC1=C(Br)C(=O)c2nc(C)ccc2C1=O`, for which the IC50 was > 80 µM (inactive). Take `CC(=O)Nc1cc2c(cc1[N+](=O)[O-])-c1ccccc1C2O` (centres undefined): the IC50 is > 80 µM (inactive). As to `COc1cc(CNc2ccc3[nH]c(=O)[nH]c3c2)ccc1OCc1ccccc1`, the IC50 is > 80 µM (inactive). Regarding `Cc1cc(C)c2c(=O)n(CC(=O)Nc3ccc(Br)c(C)c3)sc2n1`, the IC50 was 58.5 µM. To `Cc1nnc(Sc2cc(NCCO)c([N+](=O)[O-])c3nonc23)s1` belongs 36.6 µM. For the molecule `O=[N+]([O-])c1ccc(N/N=C/c2ccc(O)c(O)c2O)c(S(=O)(=O)N2CCOCC2)c1`, the IC50 is 75.5 µM.

On to `COc1cc(C(=O)O/N=C2\C=CC(=O)C=C2C)cc(OC)c1OC`, for which the IC50 is > 80 µM (inactive). Consider `O=S(=O)(Nc1c(O)ccc2ccccc12)c1ccccc1`, for which the 50% inhibitory concentration (IC50) is 9.3 µM. Regarding `Nn1c(CSc2nc3ccccc3o2)nnc1CSc1nc2ccccc2o1`, the IC50 is > 80 µM (inactive). Then `O=C(NC1=CC(=O)c2ccccc2C1=O)c1ccccc1`, with 38.2 µM; and `Cc1ccc(N2CC(C(=O)OCC(=O)c3ccc([N+](=O)[O-])cc3)CC2=O)cc1` (centres undefined), with > 80 µM (inactive). Take `c1ccc(OCc2nnc3n2N=C(c2ccccc2)CS3)cc1`: the IC50 was > 80 µM (inactive). `Cc1nnc(N/N=C\c2ccc(-c3cccc(C(=O)O)c3)o2)n1N`: the IC50 was 40.1 µM. Then `Oc1cc(-n2cccn2)c(O)cc1-n1cccn1`, with 68.8 µM; and `O=C(Nc1nc(-c2ccncc2)cs1)C1COc2ccccc2O1` (centres undefined), with 22.4 µM; and `CCN(CC)c1ccc(C(=C2C=CC(=[N+](CC)CC)C=C2)c2ccccc2)cc1`, with > 80 µM (inactive).

Turning to `N#Cc1ccc(Oc2cccc3cccnc23)c([N+](=O)[O-])c1`, the IC50 is > 80 µM (inactive). For `CCCNC(=O)Cn1sc2nc(C)cc(C)c2c1=O`, the IC50 was 51.1 µM. On to `Cc1ccc(NC(=O)Cn2sc3nc(C)cc(C)c3c2=O)c(Cl)c1`, for which the IC50 was > 80 µM (inactive).

On to `Cc1nn(-c2ccccc2)c(Cl)c1/C=N/Nc1nc2ccccc2n1C`, for which the IC50 is > 80 µM (inactive). As for `Cc1c(N=C2C=C(Br)C(=O)C(Br)=C2)c(=O)n(-c2ccccc2)n1C`, the IC50 was > 80 µM (inactive).

With `Brc1cc2[nH]cnc2c2ccccc12`, the IC50 is > 80 µM (inactive). Regarding `O=c1c2ccccc2sn1-c1cc(S(=O)(=O)N2CCOCC2)ccc1N1CCCC1`, the IC50 is 12.5 µM. Turning to `CNCc1ccccc1Sc1cc(O)ccc1O`, the IC50 is 54.5 µM. `COc1cc(CN2CCN(CCCc3ccccc3)C(CCO)C2)cc(OC)c1O` (centres undefined): the IC50 is > 80 µM (inactive). Take `Cn1sc2ccccc2c1=O`: the IC50 is 39.5 µM. Turning to `Nc1ccc(S(=O)(=O)c2cc(O)c3ccccc3c2O)cc1`, the IC50 was > 80 µM (inactive). Regarding `CCOC(=O)CSc1nnc(NC(=O)c2cccc([N+](=O)[O-])c2)s1`, the IC50 is > 80 µM (inactive). Consider `NCCc1cc(O)c(O)cc1O`, for which the 50% inhibitory concentration (IC50) is 39.1 µM. As for `COc1ccc(CCn2c(NN=C(C)C)nc3c2c(=O)[nH]c(=O)n3C)cc1`, the IC50 was > 80 µM (inactive). Then `N#Cc1ccc2sn(-c3ccccc3)c(=O)c2c1`, with 14.8 µM; and `O=c1c2ccccc2sn1-c1nccs1`, with 23.1 µM; and `CCC(C)(C)c1nnc(NC(=O)C2CCN(C(=O)c3ccco3)CC2)s1`, with > 80 µM (inactive). Consider `Nc1cc(N)c(OCC(F)(F)F)cc1OCC(F)(F)F`, for which the IC50 is > 80 µM (inactive). In the case of `Cc1ccc(/C=C/C(=O)NCc2ccc(S(N)(=O)=O)cc2)o1`, the IC50 is > 80 µM (inactive). For `CCN1CCN(C(=S)c2ccc(O)cc2)CC1`, the IC50 is > 80 µM (inactive).

For the molecule `CC(C)(C)c1ccc(O)c(O)c1`, the IC50 is 48.6 µM. Take `COc1ccc(Cl)cc1NC(=O)c1cccc([N+](=O)[O-])c1O`: the IC50 was > 80 µM (inactive).
